Experimental data: US9982242B2, “Protein complex capable of catalyzing asymmetric oxidation reaction and method for producing same” (SANYO FOODS CO., LTD., priority 2012, dated 2018)

Tested on: CLPC
Details: 1 mM

SMILES | effect of additive on CLPC activity
O=C(O)CN(CCN(CC(=O)O)CC(=O)O)CC(=O)O [EDTA] | activity was completely lost
[Cl-].[Cl-].[Zn+2] [ZnCl2] | inhibitory activity was observed

Same assay, conditions: additive 1.0 mM, CLPC 20 mg, rac-2 0.8 mM, […], 48 h

SMILES | OP/% ee of (S)-2 with additive [% ee]
[Ca+2].[Cl-].[Cl-] [CaCl2] | 97.7
O=S(=O)([O-])[O-].[Cu+2] [CuSO4] | 86.2
[Cl][Fe]([Cl])[Cl] [FeCl3] | 79.6
O=S(=O)([O-])[O-].[Mg+2] [MgSO4] | 91.2
[Cl][Mn][Cl] [MnCl2] | 80.4
[Cl][Ni][Cl] [NiCl2] | 77.7
[Cl-].[Cl-].[Zn+2] [ZnCl2] | 1.7
c1cnc2c(c1)ccc1cccnc12 [o-phenanthroline] | 1.4
